Where a name gives a salt, the structure may show the parent alone.
What was measured:
[1] = Hygroscopicity: increase in weight and appearance after exposure to humidity; format: physicochemical; details: exposure to 70±5% relative humidity, at 25° C. for 24 hours
[2] = Hygroscopicity of the solid as stated in the preparation examples; format: physicochemical
[3] = background statement; cited from earlier work

Compound | Appearance [1] | Increase in weight (%) [1] [%] | Hygroscopicity of the solid [2] | Hygroscopicity (known salts, prior art) [3]
Acetyl L-carnitine L-asparaginate Hydrochloride [Example 9] | no variation | 0.3 | non-hygroscopic | 
CC(=O)O[C@H](CC(=O)[O-])C[N+](C)(C)C [Acetyl-L-carnitine inner salt, reference compound] | deliquescent | 19 | Very Hygroscopic | 
Acetyl L-carnitine L-arginate Hydrochloride [Example 5] | no variation | 0.45 | non-hygroscopic | 
Acetyl L-carnitine L-glutaminate Hydrochloride [Example 7] | no variation | 0.6 | non-hygroscopic | 
C[N+](C)(C)C[C@H](O)CC(=O)[O-] [L-carnitine inner salt, reference compound] | deliquescent | 23 |  | 
CC(=O)O[C@H](CC(=O)O)C[N+](C)(C)C.O=C([O-])/C=C/C(=O)O [acetyl L(−)-carnitine acid fumarate] |  |  |  | strongly hygroscopic
CC(=O)O[C@H](CC(=O)O)C[N+](C)(C)C.[Cl-] [Acetyl-L-carnitine chloride, reference compound] | clumped mass | 8 |  | 
Cl.N[C@@H](CS)C(=O)O [L-cysteine Hydrochloride] |  |  | Very Hygroscopic | 
C[N+](C)(C)C[C@H](O)CC(=O)O.C[N+](C)(C)C[C@H](O)CC(=O)O.O=C([O-])C(O)C(O)C(=O)[O-] [L(−)-carnitine tartrate] |  |  |  | non-hygroscopic
Acetyl L-carnitine L-glutamate Hydrochloride [Example 6] | no variation | 0.4 | non-hygroscopic | 
Acetyl L-carnitine L-cysteinate Hydrochloride [Example 4] | no variation | 0.6 | non-hygroscopic | 
Acetyl L-carnitine L-aspartate Hydrochloride [Example 8] | no variation | 0.7 | non-hygroscopic | 
CCC(=O)O[C@H](CC(=O)O)C[N+](C)(C)C.[Cl-] [Propionyl-L-carnitine chloride, reference compound] | deliquescent | 15 |  | 
Acetyl L-carnitine L-isoleucinate hydrochloride [Example 1] | no variation | 0.2 | non-hygroscopic | 
L(−)-carnitine acid fumarate |  |  |  | non-hygroscopic

Source: US6703042B1, “Salts of L-carnitine and lower alkanoyl L-carnitine” (Sigma-Tau Industries Farmaceutiche Riunite S.p.A., priority 1999, dated 2004)
